Test results taken from patent publication US12319663B2, “Alkene-containing amide compound and application thereof” (SHENYANG SINOCHEM AGROCHEMICALS R&D CO., LTD., priority 2019, dated 2025).

Tests used:
Type in all cases: in vivo
piemarker = assay: Herbicidal activity, post-emergence stem and leaf spray, greenhouse: piemarker control
Protocol: (§1) Seeds of broadleaf weeds (zinnia and piemarker) or grassy weeds (green bristlegrass and barnyard grass) are respectively sown in a paper cup having a diameter of 7 cm and containing nutrient soil; after sowing, the seeds are covered with 1 cm of soil; the soil is pressed and watered, and then the seeds are cultivated in a greenhouse according to a conventional method; and stems and leaves are sprayed after 2-3 leaf stage of the weeds.
(§2) After the original medicinal acetone was dissolved, the test requires to use 1% of Tween 80 to stand in running water to prepare the solution to be tested with a required concentration. According to the design dose of the test, spray treatment was carried out on a track-type crop sprayer (designed and produced by British Engineer Research Ltd.) (spray pressure is 1.95 kg/cm^2, spray volume is 50 L/hm^2 and track speed is 1.48 km/h). The test was repeated for three times. The test material was treated and then placed in an operation hall. The medicinal liquid was naturally dried in the shade, and then was placed in a greenhouse and managed according to the conventional method, The response of the weeds to the drug was observed and recorded, After treatment, the control effects of the test drug on the weeds were visually inspected regularly, expressed by 0-100%. “0” represents no control effect and “100%” represents complete killing.
According to the above test method, part of the compounds of the formula I and KC are selected for activity test of controlling the piemarker. […]

green bristlegrass = assay: Herbicidal activity, post-emergence stem and leaf spray, greenhouse: green bristlegrass control
Protocol: as §1, §2
According to the above test method, part of the compounds of the formula I and KC are selected for the activity test of controlling the green bristlegrass.

zinnia = assay: Herbicidal activity, post-emergence stem and leaf spray, greenhouse: zinnia control; conditions: visual, 0 = no control effect, 100% = complete killing
Protocol: as §1, §2
According to the above test method, part of the compounds of the formula I and KC are selected for activity test of controlling the zinnia.

barnyard grass = assay: Herbicidal activity, post-emergence stem and leaf spray, greenhouse: barnyard grass control
Protocol: as §1, §2
According to the above test method, part of the compounds of the formula I and KC are selected for the activity test of controlling the barnyard grass.

[1] = dose 37.5 g a.i./hm2, post-emergence stem and leaf spray
[2] = dose 150 g a.i./hm2, post-emergence stem and leaf spray
[3] = dose 600 g a.i./hm2, post-emergence stem and leaf spray

Q: Which “Piemarker control activity (after emergence, control effect %)” value (piemarker; [1]) does the source give for `Cc1c(S(C)(=O)=O)ccc(C(=O)N(C(=O)C2=CCCCC2)c2nnnn2C)c1Cl` [Compound 2-97] here?
A: The value was 95%.

Q: What about the “Piemarker control activity (after emergence, control effect %)” value (piemarker; [2]) of the same compound?
A: Its value is 100%.

Q: And the “Piemarker control activity (after emergence, control effect %)” value (piemarker; [3])?
A: Its value is 100%.

Q: And the “Green bristlegrass control activity (after emergence, control effect %)” value (green bristlegrass; [1])?
A: Its value is 80%.

Q: And the “Green bristlegrass control activity (after emergence, control effect %)” value (green bristlegrass; [2])?
A: Its value is 95%.

Q: What about the “Green bristlegrass control activity (after emergence, control effect %)” value (green bristlegrass; [3]) of the same compound?
A: The value was 100%.

Q: And the “Zinnia control activity (after emergence, control effect %)” value (zinnia; dose 37.5 g a.i./hm^2)?
A: The value was 100%.

Q: And the “Zinnia control activity (after emergence, control effect %)” value (zinnia; dose 150 g a.i./hm^2)?
A: The value was 100%.

Q: And the “Zinnia control activity (after emergence, control effect %)” value (zinnia; dose 600 g a.i./hm^2)?
A: Its value is 100%.

Q: What about the “Barnyard grass control activity (after emergence, control effect %)” value (barnyard grass; [1]) of the same compound?
A: The value was 90%.

Q: And the “Barnyard grass control activity (after emergence, control effect %)” value (barnyard grass; [2])?
A: Its value is 95%.

Q: What about the “Barnyard grass control activity (after emergence, control effect %)” value (barnyard grass; [3]) of the same compound?
A: The value was 100%.
